# Laboratory results: patent US20260293949A1, “CARBONATION SENSATION IMPARTING OR ENHANCING AGENT” (TAKASAGO INTERNATIONAL CORPORATION, priority 2022, published 2026)
# Experiment: Sensory evaluation of fizziness enhancement in carbonated water (WILKINSON TANSAN), specialized panelists
# Format: in vivo
# Details: for Fizziness enhancement evaluation result: average score of seven panelists
# Method: In the following Examples, the action and effect were verified using a value obtained by calculating an average score of scores for imparting or enhancing fizziness by sensory evaluation conducted by specialized panelists. The expression “1 point” in the evaluation is the evaluation in the case where no component is added at all (no addition).
# Diethyl sebacate (manufactured by Inoue Perfumery Mfg. Co., Ltd., the same applies to the following Examples) was separately added to “WILKINSON (registered trademark) TANSAN (manufactured by Asahi Soft Drinks Co., Ltd.)” so as to reach the concentrations shown in Table 2 below, and sensory evaluation was performed by seven specialized panelists to determine the extent to which fizziness was enhanced as compared with a control in which diethyl sebacate was not added.
# Diisobutyl adipate (manufactured by Inoue Perfumery Mfg. Co., Ltd., the same applies to the following Examples) was separately added to “WILKINSON (registered trademark) TANSAN (manufactured by Asahi Soft Drinks Co., Ltd.)” so as to reach the concentrations shown in Table 3 below, and sensory evaluation was performed by seven specialized panelists to determine the extent to which fizziness was enhanced as compared with a control in which diisobutyl adipate was not added.
# Dimethyl sebacate (manufactured by Tokyo Chemical Industry Co., Ltd.) was separately added to “WILKINSON (registered trademark) TANSAN (manufactured by Asahi Soft Drinks Co., Ltd.)” so as to reach the concentrations shown in Table 4 below, and sensory evaluation was performed by seven specialized panelists to determine the extent to which fizziness was enhanced as compared with a control in which dimethyl sebacate was not added.
# Dipropyl adipate (manufactured by Tokyo Chemical Industry Co., Ltd.) was separately added to “WILKINSON (registered trademark) TANSAN (manufactured by Asahi Soft Drinks Co., Ltd.)” so as to reach the concentrations shown in Table 5 below, and sensory evaluation was performed by seven specialized panelists to determine the extent to which fizziness was enhanced as compared with a control in which dipropyl adipate was not added.
SMILES,amelioration of mouthfeel (in words),fizziness enhancement (in words),"Fizziness enhancement evaluation result (0.005 ppm, 1 (not enhanced) to 5 (extremely enhanced))","Fizziness enhancement evaluation result (0.01 ppm, 1 to 5)","Fizziness enhancement evaluation result (0.1 ppm, 1 to 5)","Fizziness enhancement evaluation result (0.5 ppm, 1 to 5)","Fizziness enhancement evaluation result (1 ppm, 1 to 5)","Fizziness enhancement evaluation result (5 ppm, 1 to 5)","Fizziness enhancement evaluation result (10 ppm, 1 to 5)","Fizziness enhancement evaluation result (20 ppm, 1 to 5)","Fizziness enhancement evaluation result (50 ppm, 1 to 5)","Fizziness enhancement evaluation result (100 ppm, 1 to 5)"
"CC(C)COC(=O)CCCCC(=O)OCC(C)C [Diisobutyl adipate, diisobutyl adipate]",effect of ameliorating the mouthfeel was also confirmed,fizziness of carbonated water can be enhanced,1.1 points,1.6 points,3.4 points,3.6 points,3.4 points,1.7 points,1.3 points,–,–,–
"COC(=O)CCCCCCCCC(=O)OC [Dimethyl sebacate, dimethyl sebacate]",effect of ameliorating the mouthfeel was also confirmed,fizziness of carbonated water can be enhanced,–,–,1.1 points,1.6 points,2.0 points,2.4 points,3.1 points,2.6 points,1.4 points,1.3 points
"CCCOC(=O)CCCCC(=O)OCCC [Dipropyl adipate, dipropyl adipate]",effect of ameliorating the mouthfeel was also confirmed,fizziness of carbonated water can be enhanced,–,–,1.1 points,1.4 points,1.9 points,2.6 points,3.0 points,1.7 points,1.4 points,1.1 points
